Experimental data reported in US20240352429A1, “AGENT FOR INDUCING VIRAL VECTOR PRODUCTION” (priority 2021, published 2024).

Columns and labels:
[1] = tested on: suspension HEK293 cells (FreeStyle 293F cell); format: cell-based; details: for titer of adeno-associated virus vector in the cell-derived sample, various cell growth inhibitors A: nocodazole 500 nM, benzimidazoles 50 μM, 5 μM, 500 nM, vinblastine sulfate, colcemid, taxanes 5 μM, 100 nM, FIG. 3 to 7
[2] = tested on: suspension HEK293 cells; test: Titer of adeno-associated virus vector (AAV2) by quantitative PCR after introducing linear covalently closed DNA (LCC DNA) with PEI; format: cell-based; details: for titer of adeno-associated virus vector from the cell-derived sample, LCC DNA: DMSO as solubilizer, nocodazole 500 nM added 1 minute after introduction, oxibendazole 50 μM, 5 μM, 500 nM, 50 nM, FIG. 11
Experimental: On the day of introduction of the nucleic acid into the cells, the suspension HEK293 cells were seeded in a 50-mL centrifuge tube equipped with a filter cap, with the number of cells being adjusted to 1×10^6 cells/mL (an amount of culture medium of 5 mL).
In the condition where a linear covalently closed DNA was used as the nucleic acid to be introduced into the cells, RC2_LCC_DNA (1 μg/μL, 4 μL, packaging plasmid DNA), Venus_LCC_DNA (1 μg/μL, 1 μL, vector plasmid DNA), Helper_LCC_DNA (1 μg/μL, 1 μL, helper plasmid DNA), and PEI MAX (1 μg/μL, 12 μL, Polysciences Inc.) as polyethylenimine (PEI) were mixed and left to stand in Opti-MEM (Thermo Fisher Scientific K.K.) for production of a LCC DNA-PEI mixed solution. Nucleic acids were introduced into the cells by adding the LCC DNA-PEI mixed solution to the cell culture medium. Thereafter, AAV2 was produced by culturing at 37° C. in the presence of 8% CO2 for 4 days.
Extraction and quantification of the adeno-associated virus vector were carried out by the same methods as in Example 1.
When the cell growth inhibitor A was oxibendazole (Tokyo Chemical Industry Co., Ltd.), DMSO was used as a solubilizer, and oxibendazole was added to the cell culture medium so that the final concentrations of oxibendazole were four kinds of concentrations, i.e., 50 μM, 5 μM, 500 nM, and 50 nM.

[3] = tested on: suspension HEK293 cells; test: Titer of adeno-associated virus vector (AAV2) produced with a bioreactor (400 mL culture medium), quantitative PCR; format: cell-based; details: nocodazole final 500 nM in DMSO, added 4 hours after introduction of the nucleic acid; vs w/o; FIG. 9
Experimental: On the day of introduction of a nucleic acid into the cells, the suspension HEK293 cells were seeded in a bioreactor (animal cell culture apparatus BCP, volume 1 L, ABLE Corporation), with the number of cells being adjusted to 1×10^6 cells/mL (in an amount of culture medium of 400 mL).
pRC2-mi342 (1 μg/μL, 240 μL, packaging plasmid DNA), pAAV-Venus (1 μg/μL, 80 μL, vector plasmid DNA), pHelper (1 μg/μL, 160 μL, helper plasmid DNA), and PEI MAX (1 μg/μL, 960 μL, Polysciences Inc.) as polyethylenimine (PEI) were mixed and left to stand in Opti-MEM (Thermo Fisher Scientific K.K.) for production of a double-stranded circular plasmid DNA-PEI mixed solution.
Nucleic acids were introduced into the cells by adding the double-stranded circular plasmid DNA-PEI mixed solution to the cell culture medium. Thereafter, AAV2 was produced by culturing at 37° C. in the presence of 8% CO2 for 4 days.
Four days after introduction of the nucleic acid into the cells, the supernatant and the cells were separated, PEG8000 (Sigma-Aldrich Co. LLC) was added to the supernatant obtained, and the adeno-associated virus vector was concentrated. Triton X-100 (Sigma-Aldrich Co. LLC) was added to the residual for cell lysis, and thereafter KANEKA Endonuclease (KANEKA CORPORATION) was added for degradation of DNA. […]
Quantification of the adeno-associated virus was performed by the same method as in Example 1.

[4] = tested on: virus-like particles; details: known from Non Patent Literature 1; cited from earlier work
[5] = added 4 hours after introduction of the nucleic acid, DMSO as solubilizer

## CCCSc1ccc2nc(NC(=O)OC)[nH]c2c1 [albendazole]
[1]; [5]
  titer of adeno-associated virus vector in the cell-derived sample, various cell growth inhibitors A: improved

## CC(=O)O[C@@]12CO[C@@H]1C[C@H](O)[C@@]1(C)C(=O)[C@H](O)C3=C(C)[C@@H](OC(=O)[C@H](O)[C@@H](NC(=O)OC(C)(C)C)c4ccccc4)C[C@@](O)([C@@H](OC(=O)c4ccccc4)[C@H]21)C3(C)C [docetaxel]
[1]; [5]
  titer of adeno-associated virus vector in the cell-derived sample, various cell growth inhibitors A: improved

## COC(=O)Nc1nc2ccc(Sc3ccccc3)cc2[nH]1 [fenbendazole]
[1]; [5]
  titer of adeno-associated virus vector in the cell-derived sample, various cell growth inhibitors A: improved

## COC(=O)Nc1nc2ccc(C(=O)c3cccs3)cc2[nH]1 [nocodazole]
[2]
  titer of adeno-associated virus vector from the cell-derived sample, LCC DNA: increased
[2]; nocodazole 500 nM in DMSO, added 1 minute after introduction of the nucleic acid, vs w/o, FIG. 10
  increase of the titer of adeno-associated virus vector (cell-derived sample), linear covalently closed DNA: fourteenfold
[3]
  total titer of adeno-associated virus vector (cell-derived and supernatant-derived sample) at bioreactor scale: reproduced
[4]
  productivity of virus-like particles: reduces
[1]; [5]
  titer of adeno-associated virus vector in the cell-derived sample, various cell growth inhibitors A: improved
[1]; final concentration from 250 nM to 2 μM, DMSO as solubilizer, added 4 hours after introduction of the nucleic acid, 4 days culture, vs 0 nM (DMSO only), FIG. 1
  total titer of adeno-associated virus vector (cell-derived sample and supernatant-derived sample): improved
[1]; nocodazole 500 nM in DMSO vs sodium valproate (VPA) 1, 2.5, 5, 10 or 12.5 mM in water, FIG. 8
  effect of improving the titer of adeno-associated virus vector (cell-derived sample) compared with sodium valproate: larger
[1]; nocodazole 500 nM in DMSO, added 1 minute after introduction of the nucleic acid, pDNA, vs w/o, FIG. 10
  increase of the titer of adeno-associated virus vector (cell-derived sample), double-stranded circular plasmid DNA: eightfold
[1]; nocodazole final 500 nM in DMSO, added between 24 hours before and 4 hours after introduction of the nucleic acid, vs DMSO only, FIG. 2
  titer of adeno-associated virus vector in the cell-derived sample, influence of timing of addition: improved

## CCCOc1ccc2nc(NC(=O)OC)[nH]c2c1 [oxibendazole]
[2]
  titer of adeno-associated virus vector from the cell-derived sample, LCC DNA: increased

## CC(=O)O[C@H]1C(=O)[C@@]2(C)[C@H]([C@H](OC(=O)c3ccccc3)[C@]3(O)C[C@H](OC(=O)[C@H](O)[C@@H](NC(=O)c4ccccc4)c4ccccc4)C(C)=C1C3(C)C)[C@]1(OC(C)=O)CO[C@@H]1C[C@@H]2O [paclitaxel]
[1]; [5]
  titer of adeno-associated virus vector in the cell-derived sample, various cell growth inhibitors A: improved

## CC[C@]1(O)C[C@@H]2CN(CCc3c([nH]c4ccccc34)[C@@](C(=O)OC)(c3cc4c(cc3OC)N(C)[C@H]3[C@@](O)(C(=O)OC)[C@H](OC(C)=O)[C@]5(CC)C=CCN6CC[C@]43[C@@H]65)C2)C1 [vinblastine]
[1]; [5]
  titer of adeno-associated virus vector in the cell-derived sample, various cell growth inhibitors A: improved
